Experiments:
PD-L1 = biological target: T1, PD-L1 (Homo sapiens, UniProt Q9NZQ7); assay: Cholesterol binding to PD-L1; conditions: summary statement, cholesterol binding to TM4SF5 and PD-L1
T1 construct: expressed in transfected cells; host or cells: Huh7 cells, transfected; captured on streptavidin agarose
Procedure: (a) Expression vectors for a control vector, TM4SF1, TM4SF5 WT, and R113Q, C118/145A, H127A, and N138A mutants of TM4SF5 were injected into the HEK293FT cell line, which was confirmed not to express TM4SF5, and allowed to express for 48 hours. (b) Huh7KO cell lines, in which TM4SF5 was knocked out in Huh7, were stably infected with a retrovirus encoding pBabe-EV or pBabe-TM4SF5-HA. […] (d) Strep-EV, Strep-PD-L1 WT, and 3NQ (N192/200/219Q) and 4NQ (N35/192/200/219Q) N-glycosylation mutants were injected into Huh7 cells to be expressed. (e) Strep-EV and Strep-TM4SF5 expression vectors were injected into Huh7KO cells and allowed to express for 48 hours. (a-e) After obtaining cell extracts, TM4SF5-strep, TM4SF5-HA, or PD-L1-strep was pulled down with streptavidin agarose resin or anti-HA antibody from extracts containing 0.2, 0.25, or 1.0 mg of protein for each experimental condition. […] Alternatively, they were treated with 1,2-^3H-Cholesterol (50 µM) alone or together with ST-3-001 (negative control compound), ST-5-001, or ST-5-002 (2.5 µM each) for 1 hour (c-e). For the experimental samples of each condition, radioactive isotope values were repeatedly measured using a TriCarb scintillation counter (PerkinElmer, Waltham, MA).

TM4SF5 [1] = biological target: T2, TM4SF5 (Homo sapiens, UniProt O14894); assay: TM4SF5 expression-dependent cell line models (summary statement); format: cell-based; parameters: expressed in transfected cells; captured on streptavidin agarose
T2 sequence (O14894 1-197): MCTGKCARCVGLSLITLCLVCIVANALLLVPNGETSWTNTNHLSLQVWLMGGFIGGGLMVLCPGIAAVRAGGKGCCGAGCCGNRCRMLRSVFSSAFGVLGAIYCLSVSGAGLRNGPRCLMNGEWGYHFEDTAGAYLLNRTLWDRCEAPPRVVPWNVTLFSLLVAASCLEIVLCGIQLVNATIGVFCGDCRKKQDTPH
From the text: In addition, the isoxazole compounds are capable of reversing both (i) an increase in PD-L1 expression and stabilization through direct binding mediated by TM4SF5 and (ii) induction of PD-1 expression in T cells, which suppresses T-cell activation and cancer cell killing functions.

TM4SF5 [2] = biological target: T2, TM4SF5; assay: Streptavidin pulldown and Western blotting: binding between TM4SF5 and cell membrane receptors/signaling factors; format: cell-based; parameters: expressed in transfected cells; host or cells: SNU449 human hepatocellular carcinoma cells, stably transfected; conditions: 24 hours
Procedure: Cells were cultured to ~60% density in a cell incubator at 37°C and 5% CO2, and then transfected using PEI and cultured in a cell incubator at 37°C for two days. After cultivation, cell extracts were obtained by the method described above. After precipitating a desired protein from the cell extracts using an immunoprecipitation method, the binding proteins were identified by the Western blot technique described above. Specifically, cells cultured in a 100 mm cell culture dish for two days were washed twice with PBS, and protease inhibitor cocktails (GenDepot, USA) were added to 500 µl of immunoprecipitation lysis buffer (0.5% Triton X-100 or Brij 58, 40 mM HEPES, 150 mM NaCl, 1 mM EDTA, pH 7.4), followed by treatment at 4°C for 15 minutes. […] Proteins therein were quantified using a BCA reagent (Thermo Scientifics, USA). An electrophoresis sample was prepared by adding 4x laemmli sample buffer to a portion of the quantified sample and boiling at 100°C for 5 minutes. For immunoprecipitation, Streptavidin Agarose Resin (Thermo Fisher Scientific) or anti-HA antibody-coated Sepharose beads were added in proportion to the quantified protein amount, followed by rotation at 4°C for 4 hours, and then centrifugation was performed at 7,000x g at 4°C for 5 minutes and the supernatant was discarded. […]

T1 sequence (Q9NZQ7 19-290): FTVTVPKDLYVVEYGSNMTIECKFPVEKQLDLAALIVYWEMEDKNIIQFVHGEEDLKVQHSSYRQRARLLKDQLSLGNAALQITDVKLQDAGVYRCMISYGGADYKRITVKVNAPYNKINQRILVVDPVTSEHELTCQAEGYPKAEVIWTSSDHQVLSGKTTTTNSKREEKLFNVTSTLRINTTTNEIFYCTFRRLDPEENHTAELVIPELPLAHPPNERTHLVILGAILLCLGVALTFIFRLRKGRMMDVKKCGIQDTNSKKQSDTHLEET

binding of cholesterol to PD-L1 (PD-L1) | concentrations at which effects were exhibited (TM4SF5 [1]) [µM] | binding of TM4SF5 to EGFR, CD44, and GLUT4 (TM4SF5 [2]; 3 µM, SNU449 (FIG. 4)) | binding between TM4SF5 and EGFR, integrin α5, CD133, CD44, mTOR, IL-6R α, GLUT1, and GLUT4 (TM4SF5 [2]; 5 µM, SNU449 (FIG. 6)) | Compound
inhibit | ≤ 1 | – | – | CC(=O)Nc1ccc(-c2cc(-c3ccc(O)cc3)no2)cc1 [ST-5-001, N-(4-(3-(4-hydroxyphenyl)isoxazole-5-yl)phenyl)acetamide]
– | – | slightly inhibited | – | COc1ccc(-c2cc(-c3ccc(N)cc3)no2)cc1 [ST-1-025, 4-(5-(4-methoxyphenyl)isoxazole-3-yl)aniline]
– | – | – | inhibited | COc1ccc(-c2cc(-c3ccc(NC(C)=O)cc3)no2)cc1 [ST-2-001, N-(4-(5-(4-methoxyphenyl)isoxazole-3-yl)phenyl)acetamide]
inhibit | ≤ 1 | – | – | Cc1ccc(C(=O)Nc2ccc(-c3cc(-c4ccc(O)cc4)no3)cc2)cc1 [ST-5-002, N-(4-(3-(4-hydroxyphenyl)isoxazole-5-yl)phenyl)-4-methylbenzamide]

— patent EP4772500A1, “NOVEL ISOXAZOLE COMPOUND AS TM4SF5-SPECIFIC INHIBITOR AND USE THEREOF” (Seoul National University R&DB Foundation, priority 2023, dated 2025)
